In general, pIC50 refers to the negative decadic logarithm of the IC50, by convention in mol/L.

We go through 20 compounds from patent publication US9181219B2, “Compounds of modulating TRPV3 function” (Hydra Biosciences, Inc., priority 2006, dated 2015).

SMILES strings stand for the structures. pIC50: −log10 of the molar value. Like-named read-outs stand apart in the source and are kept apart here.

Type in all cases: cell-based
One data set addresses TRPV3 (Homo sapiens (Human), UniProt Q8NET8). In words: Whole-cell patch clamp of TRPV3 mediated inward current. The settings on record: HEK293/TREx TRPV3 cells, approximate values. The text has this: Whole-cell patch clamp experiments permit the detection of currents through the TRPV3 channel in the cell line described above. A glass electrode is brought into contact with a single cell and the membrane is then ruptured, permitting control of the voltage of the cell membrane and measurement of currents flowing across the membrane using the amplifier attached to the electrode. A perfusion system permits control of the extracellular solution, including the addition of blockers and activators of the current. The current can be activated by heating this solution to 28° C. or warmer or by addition of 20 μM 2-APB to the solution.
TRPV3 cells were induced 20-48 hours, removed from growth plates, and replated at low density (to attain good single-cell physical separation) on glass coverslips for measurement. In some cases, cells were grown in low density overnight on glass coverslips. Patch clamp recordings were made in the whole-cell mode with a holding potential of −40 mV. Every 5 seconds, a voltage ramp was applied from −120 to +100 mV, 400 ms in duration. Currents elicited were quantified at −80 mV and +80 mV. The internal solution consisted of 140 mM cesium aspartate, 10 mM EGTA, 2.27 mM MgCl2, 1.91 mM CaCl2 and 10 mM HEPES, pH to 7.2 with KOH; with 50 nM calculated free Ca^2+. External solution was Ringer's solution described above. Upon addition of 2-APB or upon heating of the extraceullar solution as described above, TRPV3 current was induced only in TRPV3-expressing cells and not in parental HEK293 TREx cells. […] Removal of the stimulus caused most of the current to go away, and inhibitor addition could still inhibit this current.
The data includes approximate IC50 values for inhibition of TRPV3 mediated inward current as assessed by patch-clamp.
Background: Patch clamp records ionic current or voltage across a cell membrane.

Another data set concerns the target hERG (Homo sapiens (Human), UniProt Q12809). The data set can be described thus: Patch clamp selectivity, hERG current. The settings on record: tested at concentrations up to 30 μM, IC50 estimated. The text has this: (§1) To determine whether compounds were selective for TRPV3 inhibition over inhibition of other ion channel types, the human ERG (hERG), NaV1.2, and TRPV1 (hTRPV1) channels and the rat TRPV6 (rTRPV6) channel were also stably transfected and expressed or induced to express in mammalian cell lines. The methods for measuring currents from these channels are well-established and have been described in numerous publications (See, Weerapura et al., 2002, J Physiology 540: 15-27; Rush et al., 2005, J Physiology 564: 808-815; Caterina et al., 1997, Nature 389: 816-824; Hoenderhop et al., 2001, J Physiology 537: 747-761; Clapham et al., 2003, Pharmacol Rev 55: 591-596). Compounds of interest were tested against these channels at concentrations up to 30 μM, and the resulting data were used to estimate IC50.

Another data set has as its target NaV1.2 (Homo sapiens (Human), UniProt Q99250). In words: Qpatch selectivity, NaV1.2 inward current. As to conditions: tested at concentrations up to 30 μM, IC50 estimated.
Text: as §1

A further data set deals with TRPV1 (hTRPV1) (Homo sapiens (Human), UniProt Q8NER1). In words: Patch clamp selectivity, TRPV1 inward current. As to conditions: tested at concentrations up to 30 μM, IC50 estimated.
Text: as §1

Setting [1] is: Phase 1 inward current, read-out: TRPV3 Phase 1 IC50 inward.
Setting [2] is: Phase 2 inward current, read-out: TRPV3 Phase 2 IC50 inward.

Chain of NaV1.2 (Q99250 whole entry): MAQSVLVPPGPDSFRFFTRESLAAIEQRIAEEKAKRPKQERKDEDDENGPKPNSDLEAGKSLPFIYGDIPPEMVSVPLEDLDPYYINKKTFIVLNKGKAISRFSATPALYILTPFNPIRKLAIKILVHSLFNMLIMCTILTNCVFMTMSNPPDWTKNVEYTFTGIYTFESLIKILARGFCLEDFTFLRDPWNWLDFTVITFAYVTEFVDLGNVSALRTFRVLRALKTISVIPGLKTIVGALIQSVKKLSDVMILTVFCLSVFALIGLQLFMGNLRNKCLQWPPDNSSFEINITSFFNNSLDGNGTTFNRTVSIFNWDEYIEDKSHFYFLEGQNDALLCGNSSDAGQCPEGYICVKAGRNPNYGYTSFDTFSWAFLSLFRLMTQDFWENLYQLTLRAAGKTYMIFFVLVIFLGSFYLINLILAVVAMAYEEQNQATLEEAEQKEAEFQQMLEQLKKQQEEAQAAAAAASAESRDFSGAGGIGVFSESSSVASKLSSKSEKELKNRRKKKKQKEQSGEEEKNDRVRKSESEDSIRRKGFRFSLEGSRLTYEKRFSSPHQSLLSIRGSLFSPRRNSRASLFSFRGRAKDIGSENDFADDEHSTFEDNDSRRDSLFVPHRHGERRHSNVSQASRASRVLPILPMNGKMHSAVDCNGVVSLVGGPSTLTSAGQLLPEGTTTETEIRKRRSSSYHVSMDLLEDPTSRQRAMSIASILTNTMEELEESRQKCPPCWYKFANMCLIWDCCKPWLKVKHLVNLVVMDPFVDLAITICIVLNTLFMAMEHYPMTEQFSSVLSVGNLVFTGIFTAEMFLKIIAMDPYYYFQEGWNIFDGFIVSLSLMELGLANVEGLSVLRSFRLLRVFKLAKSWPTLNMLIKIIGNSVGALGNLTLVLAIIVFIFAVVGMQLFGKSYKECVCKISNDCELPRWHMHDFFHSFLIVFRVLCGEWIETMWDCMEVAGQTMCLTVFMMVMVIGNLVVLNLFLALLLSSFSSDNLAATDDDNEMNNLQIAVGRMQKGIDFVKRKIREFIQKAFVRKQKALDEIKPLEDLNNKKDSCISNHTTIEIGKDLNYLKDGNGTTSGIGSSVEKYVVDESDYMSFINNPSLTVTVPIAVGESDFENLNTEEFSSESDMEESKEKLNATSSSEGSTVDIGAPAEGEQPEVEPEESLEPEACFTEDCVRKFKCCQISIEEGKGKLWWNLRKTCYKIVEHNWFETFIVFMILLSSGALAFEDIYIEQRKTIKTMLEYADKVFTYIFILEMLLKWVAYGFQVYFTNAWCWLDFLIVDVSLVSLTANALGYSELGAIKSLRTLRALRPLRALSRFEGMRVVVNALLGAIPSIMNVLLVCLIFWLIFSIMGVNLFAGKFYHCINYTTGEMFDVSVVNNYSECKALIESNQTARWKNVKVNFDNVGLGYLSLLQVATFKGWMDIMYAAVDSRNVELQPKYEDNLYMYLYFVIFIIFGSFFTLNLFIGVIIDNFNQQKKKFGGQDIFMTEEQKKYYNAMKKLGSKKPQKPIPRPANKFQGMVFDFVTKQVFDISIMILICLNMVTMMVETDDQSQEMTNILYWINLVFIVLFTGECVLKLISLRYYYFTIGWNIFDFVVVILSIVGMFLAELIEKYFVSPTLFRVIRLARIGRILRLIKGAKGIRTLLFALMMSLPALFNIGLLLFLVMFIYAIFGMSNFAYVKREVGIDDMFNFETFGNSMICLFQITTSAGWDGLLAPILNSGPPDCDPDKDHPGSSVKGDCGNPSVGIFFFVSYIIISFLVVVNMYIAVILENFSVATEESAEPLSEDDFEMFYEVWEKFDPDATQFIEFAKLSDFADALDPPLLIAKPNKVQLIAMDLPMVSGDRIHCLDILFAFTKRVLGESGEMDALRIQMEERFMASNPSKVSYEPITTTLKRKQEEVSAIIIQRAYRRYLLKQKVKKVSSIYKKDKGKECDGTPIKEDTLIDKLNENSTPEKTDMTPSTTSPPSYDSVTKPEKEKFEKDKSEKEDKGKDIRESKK
Chain of TRPV3 (Q8NET8 whole entry, species assumed, the tested form may be a part): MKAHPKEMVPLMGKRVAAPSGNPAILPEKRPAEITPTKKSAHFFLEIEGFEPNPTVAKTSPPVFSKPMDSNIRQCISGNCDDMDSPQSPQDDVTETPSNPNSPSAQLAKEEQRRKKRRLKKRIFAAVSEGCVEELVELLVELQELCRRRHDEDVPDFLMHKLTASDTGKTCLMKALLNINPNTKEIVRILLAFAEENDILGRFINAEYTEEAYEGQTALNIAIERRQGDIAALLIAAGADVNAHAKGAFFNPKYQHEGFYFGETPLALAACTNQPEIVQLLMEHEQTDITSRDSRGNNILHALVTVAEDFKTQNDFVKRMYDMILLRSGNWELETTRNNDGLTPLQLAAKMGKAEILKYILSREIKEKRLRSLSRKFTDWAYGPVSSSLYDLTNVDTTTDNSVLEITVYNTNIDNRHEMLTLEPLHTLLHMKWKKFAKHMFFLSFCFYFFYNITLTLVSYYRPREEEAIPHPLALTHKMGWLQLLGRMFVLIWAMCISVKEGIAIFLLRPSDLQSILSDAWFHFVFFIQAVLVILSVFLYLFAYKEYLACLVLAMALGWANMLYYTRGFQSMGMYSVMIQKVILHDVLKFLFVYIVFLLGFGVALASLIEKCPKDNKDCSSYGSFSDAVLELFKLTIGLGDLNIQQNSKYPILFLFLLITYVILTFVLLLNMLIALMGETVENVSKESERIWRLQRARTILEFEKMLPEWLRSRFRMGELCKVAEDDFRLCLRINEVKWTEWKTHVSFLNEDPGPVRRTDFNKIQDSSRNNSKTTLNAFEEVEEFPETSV
Chain of hERG (Q12809 whole entry): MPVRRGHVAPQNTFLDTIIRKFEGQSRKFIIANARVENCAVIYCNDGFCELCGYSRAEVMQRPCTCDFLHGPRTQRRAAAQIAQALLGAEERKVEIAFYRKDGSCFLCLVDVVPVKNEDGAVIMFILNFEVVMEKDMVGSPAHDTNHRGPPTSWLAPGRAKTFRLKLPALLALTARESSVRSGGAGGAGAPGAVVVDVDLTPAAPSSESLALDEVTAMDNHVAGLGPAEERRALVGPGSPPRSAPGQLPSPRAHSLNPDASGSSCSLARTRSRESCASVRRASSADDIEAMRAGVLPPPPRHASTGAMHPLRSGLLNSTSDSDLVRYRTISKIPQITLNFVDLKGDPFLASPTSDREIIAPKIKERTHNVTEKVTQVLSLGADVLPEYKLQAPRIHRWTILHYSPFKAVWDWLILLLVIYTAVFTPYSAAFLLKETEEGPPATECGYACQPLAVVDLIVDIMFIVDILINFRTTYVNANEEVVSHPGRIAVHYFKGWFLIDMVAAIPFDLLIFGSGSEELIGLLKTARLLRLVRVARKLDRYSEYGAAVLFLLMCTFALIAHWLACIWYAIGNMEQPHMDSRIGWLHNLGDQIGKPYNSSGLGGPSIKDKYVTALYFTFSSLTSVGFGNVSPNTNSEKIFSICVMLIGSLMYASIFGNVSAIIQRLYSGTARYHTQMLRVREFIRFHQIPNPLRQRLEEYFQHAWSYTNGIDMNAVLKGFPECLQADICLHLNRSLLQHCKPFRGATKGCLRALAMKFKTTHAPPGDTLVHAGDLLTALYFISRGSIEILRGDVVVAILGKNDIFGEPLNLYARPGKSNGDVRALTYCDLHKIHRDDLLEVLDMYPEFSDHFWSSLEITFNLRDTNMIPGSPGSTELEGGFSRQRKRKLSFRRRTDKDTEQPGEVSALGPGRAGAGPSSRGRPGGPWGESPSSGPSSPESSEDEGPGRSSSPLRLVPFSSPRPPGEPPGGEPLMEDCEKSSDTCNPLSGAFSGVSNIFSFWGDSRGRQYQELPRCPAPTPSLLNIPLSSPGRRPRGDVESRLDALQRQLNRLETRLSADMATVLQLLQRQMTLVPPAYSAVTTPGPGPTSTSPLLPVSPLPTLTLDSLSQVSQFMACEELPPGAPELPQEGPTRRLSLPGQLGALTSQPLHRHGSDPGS
Chain of TRPV1 (hTRPV1) (Q8NER1 whole entry): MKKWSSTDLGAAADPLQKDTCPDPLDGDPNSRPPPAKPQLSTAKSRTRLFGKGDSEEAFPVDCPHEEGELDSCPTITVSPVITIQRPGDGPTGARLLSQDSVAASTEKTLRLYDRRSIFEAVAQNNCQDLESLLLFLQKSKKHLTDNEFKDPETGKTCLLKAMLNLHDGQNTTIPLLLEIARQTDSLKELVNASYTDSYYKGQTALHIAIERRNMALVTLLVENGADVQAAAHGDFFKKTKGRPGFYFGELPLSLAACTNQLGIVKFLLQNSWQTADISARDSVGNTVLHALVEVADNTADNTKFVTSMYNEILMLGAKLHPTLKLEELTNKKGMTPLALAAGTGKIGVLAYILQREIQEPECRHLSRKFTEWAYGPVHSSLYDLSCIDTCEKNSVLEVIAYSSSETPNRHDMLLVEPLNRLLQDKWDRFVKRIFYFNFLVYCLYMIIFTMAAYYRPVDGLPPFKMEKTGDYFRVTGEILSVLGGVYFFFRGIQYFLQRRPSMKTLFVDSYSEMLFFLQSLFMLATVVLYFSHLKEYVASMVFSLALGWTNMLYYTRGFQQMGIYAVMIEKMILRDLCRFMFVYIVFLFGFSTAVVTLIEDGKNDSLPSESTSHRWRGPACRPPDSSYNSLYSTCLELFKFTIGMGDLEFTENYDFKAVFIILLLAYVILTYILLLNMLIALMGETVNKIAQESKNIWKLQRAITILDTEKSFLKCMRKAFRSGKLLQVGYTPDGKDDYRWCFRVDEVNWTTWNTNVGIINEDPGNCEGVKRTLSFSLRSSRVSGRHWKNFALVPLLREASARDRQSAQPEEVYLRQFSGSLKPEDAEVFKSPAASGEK

On to `Cc1ccnc(SCC(=O)N2CCCc3cccc(C)c32)c1C`, for which the values for the negative logarithm of the IC50 (pIC50) on TRPV3 (setting [1]) and at TRPV3 (setting [2]) were at least 5.30 and at least 6.00, respectively.
On the same counts, the results for `Cc1cccc2c1N(C(=O)CSc1ccc(C#N)cn1)CCC2` are at least 5.00 and at least 5.30.
Regarding `Cc1cccc2c1N(C(=O)CSc1ncccc1Cl)CCC2` [Compound 20, 2-(3-chloro-pyridin-2-ylsulfanyl)-1-(8-methyl-3,4-dihydro-2H-quinolin-1-yl)-ethanone], the pIC50 at hERG was at most 5.00; on NaV1.2 it was at most 4.52; on TRPV3 (setting [1]) it was at least 6.70; on TRPV3 (setting [2]) it was at least 6.00.
For `Cc1cccc2c1N(C(=O)CSc1ccc(C(F)(F)F)cn1)CCC2` [Compound 6, 2-(5-trifluoromethyl-pyridine-2-ylsulfanyl)-1-(8-methyl-3,4-dihydro-2H-quinolin-1-yl)-ethanone], the pIC50 at TRPV1 (hTRPV1) is at most 4.70; on hERG, at most 4.52; at NaV1.2, at most 4.52; at TRPV3 (setting [1]) it was at least 6.30; at TRPV3 (setting [2]), at least 6.70.
Take `Cc1cccc2c1N(C(=O)CSc1ncc(Cl)cc1Cl)CCC2`: the pIC50 on TRPV3 (setting [1]) and on TRPV3 (setting [2]) was at least 6.70 throughout.
`Cc1cccc2c1N(C(=O)CSc1ncccc1C(F)(F)F)CCC2` [Compound 8, 1-(8-methyl-3,4-dihydro-2H-quinolin-1-yl)-2-(3-trifluoromethyl-pyridin-2-ylsulfanyl)-ethanone]: the negative logarithm of the IC50 (pIC50) is at least 6.00 at TRPV3 (setting [1]) and at least 5.30 on TRPV3 (setting [2]).
In the same order, the values of `Cc1cccc2c1N(C(=O)CSc1ccc(Br)cn1)CCC2` are at least 6.30 and at least 6.30.
On the same counts, the results for `Cc1cccc2c1N(C(=O)CSc1ncccc1C#N)CCC2` are at least 6.00 and at least 6.30.
On the same counts, the results for `Cc1ccc(SCC(=O)N2CCCc3cccc(C)c32)nc1` [Compound 24, 1-(8-Methyl-3,4-dihydro-2H-quinolin-1-yl)-2-(5-methyl-pyridin-2-ylsulfanyl)-ethanone] are at least 5.30 and at least 5.00.
With `O=C(CSc1ccc(C(F)(F)F)cn1)N1CCCc2ccccc21`, the pIC50 on NaV1.2 is at most 4.52; at TRPV3 (setting [1]), at least 5.30; on TRPV3 (setting [2]), at least 6.00.
With `Cc1cccc2c1N(C(=O)CSc1ncc(C(F)(F)F)cc1Cl)CCC2` [Compound 10, 2-(3-chloro-5-trifluoromethyl-pyridine-2-ylsulfanyl)-1-(8-methyl-3,4-dihydro-2H-quinolin-1-yl)-ethanone], the pIC50 at TRPV3 (setting [1]) is at least 6.70; on TRPV3 (setting [2]) it was at least 6.30.
On the same counts, the results for `COc1cccc2c1N(C(=O)CSc1ncccc1Cl)CCC2` are at least 6.30 and at least 6.30.
On the same counts, the results for `O=C(CSc1ccc(Cl)cn1)N1CCCc2ccccc21` [Compound 21, 2-(5-chloro-pyridine-2-ylthio)-1-(3,4-dihydroquinolin-1-(2H)-yl)-ethanone] are at least 5.30 and at least 5.30.
On the same counts, the results for `Cc1cccc2c1N(C(=O)CSc1ncc(C(F)(F)F)cc1F)CCC2` are at least 6.70 and at least 6.70.
Regarding `Cc1cnc(SCC(=O)N2CCCc3cccc(C)c32)cc1C`, the pIC50 at TRPV3 (setting [1]) and at TRPV3 (setting [2]) was at least 6.70 throughout.
Consider `COC(=O)c1cnc(SCC(=O)N2CCCc3cccc(C)c32)c(Cl)c1`, for which the negative-log IC50 (pIC50) at TRPV3 (setting [1]) and on TRPV3 (setting [2]) was at least 5.30 in each case.
Regarding `CCc1cc(C(F)(F)F)cnc1SCC(=O)N1CCCc2cccc(C)c21`, the negative-log IC50 (pIC50) on TRPV3 (setting [1]) and at TRPV3 (setting [2]) was at least 5.30 each time.
Consider `Cc1cccc2c1N(C(=O)CSc1ccc(Cl)cn1)CCC2` [Compound 16, 2-(5-Chloro-pyridin-2-ylsulfanyl)-1-(8-methyl-3,4-dihydro-2H-quinolin-1-yl)-ethanone], for which the pIC50 at hERG is at most 5.30; at TRPV3 (setting [1]), at least 6.30; on TRPV3 (setting [2]) it was at least 6.30.
As to `Cc1cccc2c1N(C(=O)CSc1cc(C#N)ccn1)CCC2`, the negative logarithm of the IC50 (pIC50) on TRPV3 (setting [1]) and at TRPV3 (setting [2]) was at least 5.00 in each case.
Take `Cc1cccc2c1N(C(=O)CSc1ccccn1)CCC2` [Compound 12, 1-(8-methyl-3,4-dihydro-2H-quinolin-1-yl)-2-(pyridine-2-ylsulfanyl)-ethanone]: the figures for the pIC50 on TRPV3 (setting [1]) and at TRPV3 (setting [2]) were at least 5.30 and at least 5.00, respectively.
